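Results reflect a 48-hour exposure of cells in 96-well plates to compound at five concentrations. GI50 = concentration required for 50% inhibition of growth. At the TGI there is no net growth.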

Experiment in all cases: NCI-60 cell line screen, 48 h
For assay [1], the system named is EKVX NSCLC.
Assay [2] has as its system MOLT-4 leukemia.
The test system of assay [3] is TK-10 renal.
For assay [4], the system named is UACC-257 melanoma.
The subject of assay [5] is SR leukemia.
In assay [6] the test system is HCC-2998 colon.
Assay [7] has as its system LOX IMVI melanoma.
The test system of assay [8] is HOP-62 NSCLC.
For assay [9], the system named is IGROV1 ovarian.
The test system of assay [10] is DLD-1 colon.

`CC(/C=C/c1ccc([N+](=O)[O-])o1)=N/N1CC(CN2CCOCC2)OC1=O` (stereo not given): the TGI in [1] was > 100 µM; in [2], 68.6 µM; in assay [3], > 100 µM; in assay [4] it was 36.5 µM; in [5] it was 50.4 µM; in assay [6], > 100 µM. Further, the TGI in assay [7] and in [8] was > 100 µM in each case.

In the case of `CCOc1ccc(/C=C/[N+](=O)[O-])cc1`, the GI50 in assay [1] is 25.7 µM; in assay [2], 5.7 µM; in [3] it was 12 µM; in [4], 11.2 µM; in [5], 2.56 µM; in assay [9], 21.8 µM. The GI50 in [6] is 1.82 µM; in [8], 12.5 µM. Moreover, the TGI is 81.7 µM in [1]; 42.9 µM in assay [2]; 24.7 µM in [3]; 24 µM in [4]; 6.37 µM in assay [5]; > 100 µM in assay [9]. The TGI in [6] came to 3.94 µM; in [8], 26.3 µM.

For the molecule `CC(C)=CC(=O)OC1C2C(C)C(=O)OC2C(O)C(C)C2C=CC(=O)C21C` (stereo not given), the TGI in [10] came out at 3.9 µM; in assay [1], 7.88 µM; in assay [2], 9.71 µM; in assay [4], 8.4 µM; in assay [9], 7.48 µM; in [6], 10.1 µM. In addition, the results for the TGI in [7] and in assay [8] were 3.44 µM and 14.7 µM, respectively.

Turning to `O=C(Nc1ccc(Cl)cc1)/C(Cc1cccc[n+]1[O-])=N\Nc1ccc([N+](=O)[O-])cc1[N+](=O)[O-]`, the TGI in [10], in assay [1], in [2], in assay [3], in assay [4] and in assay [9] was > 100 µM throughout. Further, the TGI in [6], in assay [7] and in [8] was > 100 µM each time.

Turning to `Cc1cccc2c(N)c3cccc(C(=O)NCCN(C)C)c3nc12`, the TGI was 0.469 µM in assay [1]; > 30 µM in assay [3]; 0.658 µM in assay [4]; 0.0347 µM in assay [5]; 0.508 µM in assay [9]; 0.218 µM in assay [6]. Further, the TGI in assay [7] is 0.158 µM; in assay [8], 0.459 µM.

On to `COc1ccc(/C=N/NC(=O)NCCCN(C)C)cc1`, for which the TGI in [10], in assay [2], in [3], in [4], in [9] and in [7] was > 100 µM in each case.

As to `O=C1Nc2ccccc2Nc2nc3cccccc-3c21`, the TGI in [10], in [1], in assay [3], in [5], in assay [9] and in assay [6] was > 100 µM in each case. The TGI in assay [7] and in [8] was > 100 µM each time.

With `CN1CCN(Cc2ccc(NC(=O)c3ccc(C#N)c(C#Cc4cnc(N)c5ncccc45)c3)cc2C(F)(F)F)CC1`, the GI50 in assay [1] is 19.3 µM; in assay [2], 1.82 µM; in assay [9] it was 1.76 µM; in assay [6], 3.89 µM. The TGI is 89.7 µM in assay [1], 8.04 µM in assay [2], 7.01 µM in [9] and > 100 µM in assay [6].

As to `c1ccc2c(c1)nc1n2CSC1`, the TGI in assay [10], in assay [1], in assay [2], in assay [3], in assay [9] and in assay [7] was > 100 µM in each case.

Turning to `CCOP(=O)(OCC)C(Cc1ccc(OC)c(OC)c1)N=C(c1ccccc1)c1ccccc1` (stereo not given), the TGI is > 100 µM in assay [3]; > 100 µM in [4]; 46.4 µM in [5]; > 100 µM in [9]; 52.4 µM in [6].

`COc1c2c(cc3c(CCc4ccccc4)cc(=O)oc13)CCC(C)(C)O2`: the TGI in assay [10], in assay [1], in assay [2], in assay [3], in assay [4] and in [5] was > 100 µM each time. Further, the TGI in [9], in assay [6], in assay [7] and in assay [8] was > 100 µM throughout.

`CC1(C)CCc2cc3c(-c4ccccc4)cc(=O)oc3cc2O1`: the TGI in assay [10], in assay [1], in assay [2], in assay [3], in [9] and in assay [7] was > 100 µM in each case.

Regarding `Cc1nc2ccccc2c(=O)n1CC(=O)O`, the TGI in assay [10], in [1], in [2], in assay [4], in assay [9] and in [6] was > 100 µM each time. Further, the TGI in assay [7] and in assay [8] was > 100 µM in each case.

Turning to `CN1C2C=C(c3ccccc3)CC1CC2` (stereo not given), the TGI in [10], in [1], in [2], in assay [3], in [4] and in [5] was > 100 µM in each case. Further, the TGI in [9], in [6] and in [7] was > 100 µM throughout.

`CCCCN(CCCC)CCCCNc1c(C)cnc2cc(Cl)ccc12`: the TGI in [1] was 46.3 µM; in assay [2] it was > 100 µM; in assay [3], 96 µM; in assay [4], 32.5 µM; in assay [6], 29.4 µM; in [7] it was 29.7 µM. Further, the TGI in assay [8] was found to be 68.2 µM.

On to `O=C(Nc1nc2ccc([N+](=O)[O-])cc2[n+]([O-])n1)C(F)(F)F`, for which the TGI in assay [2] was 81.6 µM; in assay [3], > 100 µM; in assay [4], 37.9 µM; in assay [5], > 100 µM; in assay [9], 44.5 µM; in [6], > 100 µM.

For the molecule `CC(C)=CCc1c(C)cc2cc3c(c(O)c2c1O)C(O)=CC(=O)C3(CC=C(C)C)C/C=C(\C)CO` (stereo not given), the TGI was 70.9 µM in assay [10]; 70.7 µM in assay [1]; 75.7 µM in assay [2]; 82.6 µM in assay [4]; 79.6 µM in assay [9]; 88.6 µM in assay [6]. In addition, the values for the TGI in assay [7] and in [8] were 77.4 µM and 64.3 µM, respectively.

Take `CCOc1ccc2c(ccc(/C=C\c3cc(C)c4cccnc4c3O)[n+]2C)c1`: the TGI in assay [10] was determined as 4.32 µM; in assay [1] it was 15.2 µM; in [2] it was 10.6 µM; in [3] it was 6 µM; in [4], 6.9 µM; in [5] it was 5.73 µM. Further, the TGI is 21.1 µM in assay [9], > 100 µM in assay [6], 66.4 µM in [7] and 28 µM in assay [8].

With `Cc1ccc(S(=O)(=O)Oc2cc(S(=O)(=O)O)cc3cc(S(=O)(=O)O)cc(N)c23)cc1`, the TGI in assay [1], in assay [3], in [4], in assay [5], in assay [9] and in [6] was > 100 µM throughout. Besides, the TGI in assay [7] and in [8] was > 100 µM throughout.

With `COc1cc2c3c(n(CCN(C)C)c(=O)c2cc1OC)-c1cc2c(cc1C3=O)OCO2`, the GI50 in assay [1] is 37 µM; in assay [2] it was < 0.0491 µM; in assay [3], 46.2 µM; in assay [4], 12.6 µM; in [9], 18.6 µM; in assay [6], 3.5 µM. In addition, the TGI is > 100 µM in assay [1]; > 100 µM in assay [3]; > 100 µM in assay [4]; > 100 µM in assay [9]; > 100 µM in assay [6]; > 21.5 µM in [7]. Further, in assay [8], the TGI is > 86.1 µM.

Consider `Nc1ncnc2c1ncn2C1CCC(CO)O1` (stereo not given), for which the TGI in assay [10] was > 100 µM; in [1], 100 µM; in assay [2] it was > 100 µM; in [4], > 100 µM; in [9] it was > 100 µM; in assay [6], > 77.4 µM. The TGI in assay [7] and in assay [8] was > 100 µM each time.

Regarding `CCN(CC)CCCC(Nc1c2ccc(Cl)cc2nc2ccc(OC)cc12)c1ccc(F)cc1` (stereo not given), the GI50 in assay [1] was 2.08 µM; in assay [2], 2.72 µM; in assay [3], 1.81 µM; in assay [4], 2.02 µM; in assay [5] it was 2.19 µM; in assay [9] it was 3.15 µM. Besides, the GI50 was 1.74 µM in [6], 1.77 µM in assay [7] and 2.54 µM in assay [8]. In addition, the TGI was found to be 8.48 µM in assay [1]; 7.06 µM in assay [2]; 3.58 µM in assay [3]; 4.1 µM in assay [4]; 5.88 µM in assay [5]; 9.06 µM in assay [9]. For the same molecule, the figures for the TGI in assay [6], in [7] and in [8] were 3.25 µM, 3.26 µM and 6.87 µM, respectively.

In the case of `C[C@]12C=CC(=O)C=C1CC[C@@H]1[C@@H]2C(=O)C[C@@]2(C)[C@H]1CC[C@]2(O)C(=O)CO`, the TGI in [1], in assay [2], in [3], in assay [4], in assay [5] and in [9] was > 100 µM each time. Besides, the TGI in assay [6], in [7] and in assay [8] was > 100 µM throughout.

As for `[C-]#[O+].[Cl][Sn]([Cl])[Cl].[Cl][Sn]([Cl])[Cl].[Pt].c1ccncc1`, the TGI in assay [10], in [1], in assay [2], in assay [4], in assay [9] and in assay [6] was > 100 µM each time. Also, the TGI is > 31.6 µM in assay [7] and > 100 µM in assay [8].

The record behind these values is PubChem BioAssay (NCI).
